The record followed here is ChEMBL document CHEMBL3507680, “University of Dundee, Gates Library screen for HepG2 cell viability”.

The structures appear in SMILES notation.

A short description of this series: Human HepG2 cell viability assay in 384 well format. The class given is toxicity, cell-based. Also on record: dose 125 nL, time 70.5 hour; cytotoxicity at 70.5 h: concentration not given beside the values. The settings on record: HepG2 cells, read-out: Inhibition.

As to `N#Cc1cc(S(N)(=O)=O)ccc1N1CCc2c(Cl)cccc2C1`, the cytotoxicity at 70.5 h is 42.5%.

Regarding `COc1c(C(=O)NC(C)Cc2ccccc2Cl)c(C)nn1C` (stereo not drawn), the cytotoxicity at 70.5 h came to 3.5%.

With `O=S(=O)(NC1CCOC1)c1ccc(C(F)(F)F)nc1` (stereo not drawn), the cytotoxicity at 70.5 h was -2.28%.

In the case of `CCN(CCNS(=O)(=O)N1CCOCC1)C(=O)OC(C)(C)C`, the cytotoxicity at 70.5 h is 30.7%.

`CCCn1nnnc1CN(CC)CC1COc2ccccc2O1` (stereo not drawn): the cytotoxicity at 70.5 h came out at 2.13%.

On to `Cc1nccn1-c1cccc(N2CCC(OCC3CCCCO3)CC2)n1` (stereo not drawn), for which the cytotoxicity at 70.5 h was -11.6%.

Take `COC(=O)c1ncccc1N1CCCCC1`: the cytotoxicity at 70.5 h is -6.28%.

Turning to `CC(C)Oc1cccc(CN(C)C(=O)Cc2ccon2)c1`, the cytotoxicity at 70.5 h was determined as 4.02%.

In the case of `CN(CC(O)C(F)(F)F)C(=O)Nc1cccc(C(F)F)c1` (stereo not drawn), the cytotoxicity at 70.5 h is -7.43%.

On to `Clc1cccc(C(CNCc2cccnc2)N2CCOCC2)c1` (stereo not drawn), for which the cytotoxicity at 70.5 h worked out at 29.7%.

With `Cc1cnn(Cc2ccc(NC(=O)N3CCCCC3CO)cc2)c1` (stereo not drawn), the cytotoxicity at 70.5 h is 24.6%.

With `Cc1ccc(C(C)(O)CNC(=O)NCCc2ccc3c(c2)CCO3)o1` (stereo not drawn), the cytotoxicity at 70.5 h stood at 26.1%.

`COc1cc(CNC(=O)c2cc(Cl)ccc2F)ccn1`: the cytotoxicity at 70.5 h is -5.8%.

For the compound `COc1cc(CNC(=O)c2cc(S(C)(=O)=O)ccc2C)ccn1`, the cytotoxicity at 70.5 h was -10.5%.

Consider `COc1cc(C#N)ccc1OCC(=O)NS(=O)(=O)c1cccnc1`, for which the cytotoxicity at 70.5 h was -7.29%.

Regarding `CCS(=O)(=O)Cc1csc(-c2ccc(S(C)(=O)=O)cc2)n1`, the cytotoxicity at 70.5 h was -6.86%.

With `Cc1ccc(NC(C(N)=O)c2ccc(F)cc2)cc1` (stereo not drawn), the cytotoxicity at 70.5 h was -0.0602%.

Regarding `COc1cc(C#N)ccc1OCC(=O)NS(=O)(=O)c1ccccc1`, the cytotoxicity at 70.5 h was -7.96%.

Regarding `CC(C)(C)Oc1ccc(CN)c(C(F)(F)F)c1`, the cytotoxicity at 70.5 h was determined as 6.84%.

Consider `CC(CS(C)(=O)=O)N(C)C(=O)NCCCc1ccc(Cl)cc1` (stereo not drawn), for which the cytotoxicity at 70.5 h was -3.65%.

For `Cc1noc(CCCNC(=O)CNC(=O)c2cc3ccccc3[nH]2)n1`, the cytotoxicity at 70.5 h is -5.29%.

On to `CC(C)(C)c1nccc(N2CCCCC2CNS(C)(=O)=O)n1` (stereo not drawn), for which the cytotoxicity at 70.5 h is -4.1%.

On to `CCCc1csc(-c2ccc(S(C)(=O)=O)cc2)n1`, for which the cytotoxicity at 70.5 h was -1.59%.

`NC(=O)c1cc(C2CC2)nc2ccc(F)cc12`: the cytotoxicity at 70.5 h amounted to 2.17%.

In the case of `Cc1cc(C)c2nc(C3CC3)cc(C(=O)N3CCCC3C(N)=O)c2c1` (stereo not drawn), the cytotoxicity at 70.5 h came to 26.2%.

Consider `CC(NC(=O)CCn1cccn1)c1cn(-c2ccccc2)nn1` (stereo not drawn), for which the cytotoxicity at 70.5 h was -5.23%.

For `COc1ccc(Cl)cc1CCNC(=O)NCc1ccncc1`, the cytotoxicity at 70.5 h is -0.665%.

Take `Cc1cc(C(F)(F)F)c2c(=O)n(Cc3cc(C)on3)n(C)c2n1`: the cytotoxicity at 70.5 h was -8.02%.

With `CCN(CC)C1CCN(C(=O)NCc2cccc(-n3ccnc3)c2)C1` (stereo not drawn), the cytotoxicity at 70.5 h is -6.04%.

`O=C(Nc1cnn(Cc2ccc(Cl)cc2)c1)N1CCCC1CO` (stereo not drawn): the cytotoxicity at 70.5 h was -7.38%.

Take `CCN(CC)C1CCN(C(=O)NCc2cccc(-n3cccn3)c2)C1` (stereo not drawn): the cytotoxicity at 70.5 h is -8.43%.

Regarding `CC(Cc1ccc(Cl)cc1)N(C)C(=O)NCCS(C)(=O)=O` (stereo not drawn), the cytotoxicity at 70.5 h was found to be 18.5%.

As to `Cc1ccccc1Cn1cnc2oc(C)c(C(=O)O)c2c1=O`, the cytotoxicity at 70.5 h was -11.3%.

On to `CN(C)c1cccc(C(=O)Nc2ccn(CCc3ccncc3)n2)c1`, for which the cytotoxicity at 70.5 h was -12.6%.

`Cc1noc(C2CCN(Cn3cc(Br)cn3)CC2)n1`: the cytotoxicity at 70.5 h is -8.17%.

Take `CN(C)S(=O)(=O)c1ccc(=O)n(CC2CCCCO2)c1` (stereo not drawn): the cytotoxicity at 70.5 h was -12.9%.

As to `CN(C)S(=O)(=O)c1ccc(=O)n(CC2CCCO2)c1` (stereo not drawn), the cytotoxicity at 70.5 h was -1.56%.

Turning to `Cc1cc(C[S+]([O-])Cc2ccccc2C)no1` (stereo not drawn), the cytotoxicity at 70.5 h was -8.16%.

On to `Cc1cnn(C2CN(CCCOc3ccc(C#N)cc3)C2)c1`, for which the cytotoxicity at 70.5 h is -2.39%.

For the compound `NC(=O)C1CCN(c2ncccc2C(=O)N2CCc3ccccc32)C1` (stereo not drawn), the cytotoxicity at 70.5 h is -5.78%.

Regarding `Cc1cc(C(=O)NC(C)CC(=O)c2ccco2)[nH]n1` (stereo not drawn), the cytotoxicity at 70.5 h came out at 15.2%.

In the case of `CCOc1ccc(Cl)cc1CCNC(=O)c1ccc(=O)n(C)c1`, the cytotoxicity at 70.5 h is -10.2%.

Regarding `CCS(=O)(=O)NCC(=O)NC1(C)CCc2ccccc2C1` (stereo not drawn), the cytotoxicity at 70.5 h was -5.54%.

In the case of `CCN1CC(COC(=O)c2cc(C)nn2CC)CC1=O` (stereo not drawn), the cytotoxicity at 70.5 h is -7.36%.

Turning to `Cc1nsc(N2CCCN(CC(=O)N(C)C3CC3)CC2)n1`, the cytotoxicity at 70.5 h is -4.31%.

As for `CC(CC(=O)c1ccco1)NC(=O)c1ccccn1` (stereo not drawn), the cytotoxicity at 70.5 h is -10.8%.

As to `CCc1nsc(N2CCCN(CC(=O)N(C)C3CC3)CC2)n1`, the cytotoxicity at 70.5 h was -6.24%.

On to `Cc1cnn(C2CN(CC(O)COc3ccc(C#N)cc3)C2)c1` (stereo not drawn), for which the cytotoxicity at 70.5 h was -3.3%.

Regarding `COCCN(C)CC1CCCN1S(=O)(=O)Cc1ccccc1F` (stereo not drawn), the cytotoxicity at 70.5 h is 13.2%.

With `Cc1ccc(C(=O)NCC(O)CN2CCCC2=O)cc1Cl` (stereo not drawn), the cytotoxicity at 70.5 h is 6.85%.

In the case of `Cc1noc(C)c1CC(=O)NCCc1cccs1`, the cytotoxicity at 70.5 h worked out at 7.71%.

With `CCOC(=O)C(C)NC(=O)CCc1ccc(F)cc1` (stereo not drawn), the cytotoxicity at 70.5 h was 1.35%.

Turning to `NC(=O)Nc1cccc(CNC(=O)CCCc2ccccc2)c1`, the cytotoxicity at 70.5 h was found to be 18%.

Regarding `O=C(CCNC(=O)NC1CC1)NCc1ccccc1`, the cytotoxicity at 70.5 h is -6.54%.

For the compound `CCc1ncc(C(=O)N2CCN(c3nc(C)cc(OC)n3)CC2)s1`, the cytotoxicity at 70.5 h is 15.8%.

As to `CCc1[nH]ncc1C(=O)N1CCN(c2nc(C)cc(OC)n2)CC1`, the cytotoxicity at 70.5 h was -4.16%.

As to `CC(C)(C)C(=O)NCCC(=O)NS(=O)(=O)c1cccnc1`, the cytotoxicity at 70.5 h was found to be 9.3%.

On to `CCn1nc2c(cc1=O)CN(CCOc1ccc(C#N)cc1)CC2`, for which the cytotoxicity at 70.5 h was 17.6%.

`OCCN(Cc1cccnc1)c1cnc2ccccc2n1`: the cytotoxicity at 70.5 h was -4.32%.

`Cc1cccc(C)c1CN1C(=O)CC2(CCSC2)C1=O` (stereo not drawn): the cytotoxicity at 70.5 h was determined as 0.0631%.

Consider `OCCN(Cc1cccnc1)c1ccc(Br)cn1`, for which the cytotoxicity at 70.5 h was -2.3%.

`CN(CC(N)=O)C(=O)CCCn1ccc2cc(Cl)ccc21`: the cytotoxicity at 70.5 h came to 10.8%.

With `CN1CCN(C2CCN(Cc3ccc(Cl)cc3)CC2)C1=O`, the cytotoxicity at 70.5 h was -2.16%.

On to `COCC(C)NC(=O)CCSc1ccc(F)cc1` (stereo not drawn), for which the cytotoxicity at 70.5 h turned out to be 13.7%.

Consider `CCN(CC)C(=O)CNC(=O)c1cnc(-c2ccccc2)nc1`, for which the cytotoxicity at 70.5 h was -2.98%.

Consider `Cc1cccc(CN2CCC(NCC3CNc4cc(C)nn4C3)CC2)c1` (stereo not drawn), for which the cytotoxicity at 70.5 h was -6.82%.

As to `Cc1cc2n(n1)CC(CNC1CCN(C(=O)c3ccco3)CC1)CN2` (stereo not drawn), the cytotoxicity at 70.5 h was -6.69%.

For the compound `Cc1cc2n(n1)CC(CNC1CCN(C3CC3)CC1)CN2` (stereo not drawn), the cytotoxicity at 70.5 h was -4.14%.

On to `Cc1cc(S(=O)(=O)Nc2cccc(I)c2)sc1C(=O)O`, for which the cytotoxicity at 70.5 h stood at 13.9%.

For `O=C(NCC1CC1)c1cnc(-c2ccccc2)nc1`, the cytotoxicity at 70.5 h was -5.81%.

With `CC(=O)c1cccc(NS(=O)(=O)c2cc(C)c(C(=O)O)s2)c1`, the cytotoxicity at 70.5 h is -4.79%.

With `Cc1noc(C)c1CCC(=O)NC(C)c1nnc2n1CCCCC2` (stereo not drawn), the cytotoxicity at 70.5 h is -4.24%.

With `Cc1nc(CN2CCC(CNC(=O)Nc3ccccc3)CC2)oc1C`, the cytotoxicity at 70.5 h is -6.72%.

Consider `CCOc1ccc(NS(=O)(=O)c2cc(C)c(C(=O)O)s2)cc1F`, for which the cytotoxicity at 70.5 h is -8.14%.

Regarding `CCOc1c(Cl)cccc1NS(=O)(=O)c1cc(C)c(C(=O)O)s1`, the cytotoxicity at 70.5 h was -4.74%.

As for `Cn1cc(N2CCC(NC(=O)c3ccccc3F)C2=O)cn1` (stereo not drawn), the cytotoxicity at 70.5 h was -1.23%.

Take `Cc1cccc(C(=O)NC2CCN(c3cnn(C)c3)C2=O)c1C` (stereo not drawn): the cytotoxicity at 70.5 h is -2.07%.

Regarding `CCC(CC)c1cc(CNC(=O)N2CCN(CC)CC2)on1`, the cytotoxicity at 70.5 h is -2.19%.

Take `CCOC(=O)NC(CNC(=O)c1cn(C)cn1)CC(C)C` (stereo not drawn): the cytotoxicity at 70.5 h was -1.97%.

Take `CCC(CC)c1cc(CNC(=O)N2CCC(n3cncn3)CC2)on1`: the cytotoxicity at 70.5 h is -1.7%.

As for `CC(NC(=O)CCCc1nc(C(C)(C)C)no1)c1nnc2n1CCC2` (stereo not drawn), the cytotoxicity at 70.5 h was -2.92%.

Turning to `CCN1CCN(c2ccc(F)cc2C(C)NCc2ccnn2C)CC1` (stereo not drawn), the cytotoxicity at 70.5 h is -1.9%.

In the case of `O=C(CNc1cc2c(cc1Cl)OCCCO2)NCc1ccc(F)cc1`, the cytotoxicity at 70.5 h is -4.01%.

Take `CC(NC(=O)COc1ccccc1C(=O)O)c1ccc(F)cc1` (stereo not drawn): the cytotoxicity at 70.5 h was -9.45%.

As for `CC(C)OCCC(=O)Nc1cccc(N2CCN(CC3CC3)CC2)c1`, the cytotoxicity at 70.5 h is -4.83%.

On to `N#Cc1ccnc(N2CCN(CC(O)c3ccc(F)cc3F)CC2)c1` (stereo not drawn), for which the cytotoxicity at 70.5 h was -3.3%.

Take `N#Cc1ccnc(N2CCN(CC(O)c3cc(F)ccc3F)CC2)c1` (stereo not drawn): the cytotoxicity at 70.5 h was -5.77%.

Take `N#Cc1ccnc(N2CCN(CC(O)c3ccccc3)CC2)c1` (stereo not drawn): the cytotoxicity at 70.5 h is -8.1%.

Turning to `Cc1ccc(CNC(=O)C2CCCCN2C(=O)OC(C)(C)C)cn1` (stereo not drawn), the cytotoxicity at 70.5 h was -3.38%.

As to `O=S(=O)(CCN1CCOC(Cn2cccn2)C1)c1ccccc1` (stereo not drawn), the cytotoxicity at 70.5 h is -7.12%.

`Cc1cc(NC(=O)[C@H]2CCCCN2C(=O)OC(C)(C)C)no1`: the cytotoxicity at 70.5 h is -2.01%.

For `CSCC(C)(O)CNC(=O)c1cccc(Cl)c1Cl` (stereo not drawn), the cytotoxicity at 70.5 h is -5.93%.

Regarding `N#Cc1ccnc(N2CCN(CC(O)c3ccccc3Cl)CC2)c1` (stereo not drawn), the cytotoxicity at 70.5 h was -0.0236%.

Regarding `O=C(CC1CCCO1)Nc1cccc(N2CCN(CC3CC3)CC2)c1` (stereo not drawn), the cytotoxicity at 70.5 h worked out at 0.099%.

As to `CCN1CCN(C(=O)C2CCCc3[nH]ncc32)CC1` (stereo not drawn), the cytotoxicity at 70.5 h was determined as 1.54%.

As for `Cc1cn(CC(=O)NC2CCC(C(=O)O)CC2)c2ccccc12` (stereo not drawn), the cytotoxicity at 70.5 h is -6.01%.

`Cc1cc(C)c2c(c1)C(NCc1nnc3n1CCC3)CCCO2` (stereo not drawn): the cytotoxicity at 70.5 h is -5.63%.

Take `Cc1n[nH]cc1CNC(=O)[C@H]1CCCCN1C(=O)OC(C)(C)C`: the cytotoxicity at 70.5 h came out at 8.82%.

As to `OC(CN(Cc1ccccc1)Cc1cccnc1)c1cccs1` (stereo not drawn), the cytotoxicity at 70.5 h was determined as 10%.

Consider `Cc1cccc2c1OCCCC2NCc1nnc2n1CCCCC2` (stereo not drawn), for which the cytotoxicity at 70.5 h is -7.8%.

For the compound `CCN(CC)C(=O)N1CCN(C(=O)C2CCCc3[nH]ncc32)CC1` (stereo not drawn), the cytotoxicity at 70.5 h was -3.25%.

Regarding `Cc1[nH]c(C2(N)CCCCC2)nc(=O)c1C`, the cytotoxicity at 70.5 h is -4.13%.

Turning to `CCc1c(C)[nH]c(C2(N)CCCCC2)nc1=O`, the cytotoxicity at 70.5 h was 0.763%.
